Data on seven molecules can be found in article PMC2247230, “Synthesis of somatostatin by breast cancer cells and their inhibition by exogenous somatostatin and sandostatin” (British Journal of Cancer, 1989).

Where two headings read alike, the source gives them in different places.

The subject of one data set is MDA-MB-436 cells. From the text: (§1) Somatostatin is a neuroendocrine hormone which inhibits not only exocrine and endocrine secretion, but also mito- genesis. Somatostatin-synthesising cells have a widespread anatomical distribution, being found in regions of the central nervous system and gastrointestinal tract. […] There have been few studies of the presence of SLI in breast cancer specimens. […] Inhibition of tumour growth may be indirect, through inhibition of endocrine secretion. […] Correspondence: J. Nelson. Received 5 October 1988, and in revised form, 9 January 1989. Materials and methods Tissue culture All media and fetal calf serum (FCS) were obtained from Flow Laboratories, Rickmansworth, UK. The same batch of serum was used throughout. […] Cell proliferation assays To assess the effects of somatostatin and Sandostatin, 5 x 10^4 cells were inoculated in 24-well tissue culture plates (Costar, Northumbria Biologicals Ltd, Cramlington, UK)- .After one day, plating efficiency was determined in a repre- sentative set of wells (cell counts, day 0) by trypsinisation and electronic cell counting (Coulter counter model ZBI, Coulter Electronics, Luton, UK). […] Thereafter cells were removed and counted at the times indicated.

The conditions of data set [1]: read-out RIA.
For data set [2] the following is noted: rat kidney homogenates, ref Pless et al., 1986, cited from earlier work. From the text:
In the presence of fe ...

Data set [3] deals with Antiserum to somatostatin-14. The data set can be described thus: Somatostatin radioimmunoassay, specificity (displacement of 125I-Tyr11 somatostatin-14). Particulars: 20 h at 4 C, charcoal/dextran separation; for sensitivity of the RIA to the substance (displacement of label): triplicate. Format: binding.
Another data set deals with ZR-75-1 cells. Kind of data set: Cell proliferation assay (electronic cell counting), ZR-75-1. Format: cell-based, human. From the text:
Somatostatin is a neuroendocrine hormone which inhibits not only exocrine and endocrine secretion, but also mito- genesis. Somatostatin-synthesising cells have a widespread anatomical distribution, being found in regions of the central nervous system and gastrointestinal tract. […] There have been few studies of the presence of SLI in breast cancer specimens. […] Inhibition of tumour growth may be indirect, through inhibition of endocrine secretion. […] Correspondence: J. Nelson. Received 5 October 1988, and in revised form, 9 January 1989. Materials and methods Tissue culture All media and fetal calf serum (FCS) were obtained from Flow Laboratories, Rickmansworth, UK. The same batch of serum was used throughout. MCF-7 cells, a gift from Dr C.R. Green, Liverpool University, were routinely cultured in modified Eagle's mini- mal essential medium (MEM) supplemented with non- essential amino acids, sodium pyruvate (1 mM) and 5% v/v FCS. ZR-75-1 and MDA-MB-436 cells were obtained from the American Tissue Culture Collection. ZR-75-1 cells were cultured in RPMI 1640 medium containing 5% FCS. MDA- MB-436 cells were cultured in Liebowitz 15 medium contain- ing 10% FCS. All media contained Phenol Red and were supplemented with penicillin (1OOIUml-1) and streptomycin (100 ug ml- 1). Cell proliferation assays To assess the effects of somatostatin and Sandostatin, 5 x 10^4 cells were inoculated in 24-well tissue culture plates (Costar, Northumbria Biologicals Ltd, Cramlington, UK)- .After one day, plating efficiency was determined in a repre- sentative set of wells (cell counts, day 0) by trypsinisation and electronic cell counting (Coulter counter model ZBI, Coulter Electronics, Luton, UK). At this time medium was removed from remaining wells and replaced with fresh medium (control) or medium containing peptide (treatment) as indicated. Control and treatment media were either unchanged or changed daily during the course of the experi- ments, or control and treatment media were removed after one day exposure (i.e. from day 0 to day 1) and replaced by control medium. Thereafter cells were removed and counted at the times indicated.

The next data set deals with MCF-7 cells. The data set can be described thus: Cell proliferation assay (electronic cell counting), MCF-7. The class given is cell-based, human. As to conditions: 500 ng ml-1, 6 days continuous exposure without medium changes, MEM plus 5% FCS (Figure 4); mean of 3-5 wells.
Source text: as §1

For `C[C@H](N)C(=O)NCC(=O)N[C@H]1CSSC[C@@H](C(=O)O)NC(=O)[C@H](CO)NC(=O)[C@H]([C@@H](C)O)NC(=O)[C@H](Cc2ccccc2)NC(=O)[C@H]([C@@H](C)O)NC(=O)[C@H](CCCCN)NC(=O)[C@H](Cc2c[nH]c3ccccc23)NC(=O)[C@H](Cc2ccccc2)NC(=O)[C@H](Cc2ccccc2)NC(=O)[C@H](CC(N)=O)NC(=O)[C@H](CCCCN)NC1=O` [somatostatin], the “cytotoxic effects in serum-free conditions” value with MDA-MB-436 cells (serum-free conditions (results not shown)) is “no cytotoxic effects”. In addition, the “exogenous somatostatin remaining, as measured by RIA” value in data set [1] (after two days in 5% FCS with or without cells) is given as “undetectable”; in data set [1] (in the presence of 5% FCS alone (no cells), after one day incubation), less than 50%; in data set [1] (in the presence of cells and 5% FCS, RPMI 1640, ZR-75-1 cells, 500 ng ml-1, after one day incubation) it was less than 20%. Further, the “remaining of starting levels after degradation” value in data set [2] (within 1 h) is on record as less than 25%.
For the molecule EGF, the “sensitivity of the RIA to the substance (displacement of label)” value (from here on “sensitivity of the RIA to the substance”) in data set [3] (1,000 fmol per tube) is “insensitive”.
Sandostatin: the “effect of one day exposure followed by return to control medium on cell proliferation” value with ZR-75-1 cells (500 ng ml-1, 5% FCS, exposure day 0 to day 1, then control medium (Figures 1c, 2b)) is listed as “much less effective in inhibiting cell proliferation than a continuous exposure”. In addition, the “inhibition of ZR-75-1 cell proliferation compared with relevant control populations” value in the data set with ZR-75-1 cells (continuous exposure to single or repeated doses of 500 ng ml-1, in the presence of FCS, day 6 (Figures 1a, b and 2a)) is listed as more than 3 fold. The “influence of insulin on the inhibitory effect” value with ZR-75-1 cells (in the presence of insulin, 5% FCS (results not shown)) was “not more pronounced in the presence of insulin”. Further, the “concentration giving consistent inhibition of growth” value in the data set with ZR-75-1 cells (range 10-500 ng ml-1 tested, without medium changes) turned out to be 500 ng/mL. Also, in the data set with ZR-75-1 cells (range 10-500 ng ml-1 tested, without medium changes, inhibition at low concentrations variable), the “lowest concentration at which inhibition was occasionally observed” value worked out at 25 ng ml -1. The “effect of continuous exposure on growth (final cell numbers)” value in the data set on MDA-MB-436 cells (500 ng ml-1, 6 days continuous exposure without medium changes, L-15 plus 10% FCS (Figure 4), mean of 3-5 wells) is listed as “inhibition of growth”; in the data set with MCF-7 cells, “inhibition of growth”. Moreover, in data set [3] (500 fmol per tube), the “sensitivity of the RIA to the substance” value was “insensitive”. In data set [2] (up to 20h), the degradation by homogenate result is listed as “virtually unaffected”.
With bacitracin, in data set [3] (1,000 fmol per tube), the “sensitivity of the RIA to the substance” value is reported as “insensitive”.
As for leupeptin, the “sensitivity of the RIA to the substance” value in data set [3] (2,000 fmol per tube) is listed as “insensitive”.
Turning to somatostatin-28, in data set [3] (compared with somatostatin-14), the “displacement of label in the RIA” value is recorded as “displacement of label was found with somatostatin-28 at higher molarities”.

B1: prolactin (protein, UniProt P01236 29-227, looked up)
Prolactin: LPICPGGAARCQVTLRDLFDRAVVLSHYIHNLSSEMFSEFDKRYTHGRGFITKAINSCHTSSLATPEDKEQAQQMNQKDFLSLIVSILRSWNEPLYHLVTEVRGMQEAPEAILSKAVEIEEQTKRLLEGMELIVSQVHPETKENEIYPVWSGLPSLQMADEESRLSAYYNLLHCLRRDSHKIDNYLKLLKCRIIHNNNC
notes: substance tested for cross-reaction in the somatostatin RIA
Consider B1, for which, in data set [3] (2,000 fmol per tube), the “sensitivity of the RIA to the substance” value was “insensitive”.
